# Measurements: US20250340560A1, “SUBSTITUTED PYRAZOLO[1,5-a]PYRIMIDINES AS BRUTON'S TYROSINE KINASE MODULATORS” (BEIGENE SWITZERLAND GMBH, priority 2013, published 2025)
# Molecular target: Recombinant Btk (Homo sapiens (Human), UniProt Q06187)
# Assay: BTK kinase assay (TR-FRET)
# Settings: read-out: IC50 (nM) Btk; 1 hour pre-incubation, ATP at Km
# Recombinant Btk, sequence (Q06187 whole entry): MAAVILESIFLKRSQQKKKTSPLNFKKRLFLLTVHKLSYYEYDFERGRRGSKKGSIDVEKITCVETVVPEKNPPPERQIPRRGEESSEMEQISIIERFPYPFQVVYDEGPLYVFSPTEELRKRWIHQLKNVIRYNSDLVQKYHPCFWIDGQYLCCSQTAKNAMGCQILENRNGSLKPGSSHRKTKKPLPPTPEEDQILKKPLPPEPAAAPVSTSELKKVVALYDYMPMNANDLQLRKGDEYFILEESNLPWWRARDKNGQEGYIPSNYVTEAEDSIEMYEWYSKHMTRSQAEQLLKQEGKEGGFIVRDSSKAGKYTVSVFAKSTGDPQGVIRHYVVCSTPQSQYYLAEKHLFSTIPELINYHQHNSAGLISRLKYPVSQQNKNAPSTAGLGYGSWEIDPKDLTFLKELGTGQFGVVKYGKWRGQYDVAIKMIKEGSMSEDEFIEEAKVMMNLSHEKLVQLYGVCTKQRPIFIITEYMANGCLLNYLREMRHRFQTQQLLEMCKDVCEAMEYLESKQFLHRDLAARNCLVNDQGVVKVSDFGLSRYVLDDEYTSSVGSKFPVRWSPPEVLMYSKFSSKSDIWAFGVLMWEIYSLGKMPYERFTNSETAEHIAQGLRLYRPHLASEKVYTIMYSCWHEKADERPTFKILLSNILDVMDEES
row,SMILES,IC50
1,"N#CC(=CC1CC1)C(=O)N1CCC([C@@H]2CCNc3c(C(N)=O)c(-c4ccc(Oc5ccccc5)cc4)nn32)CC1 [Compound 181, (S)-7-(1-(2-cyano-3-cyclopropylacryloyl)piperidin-4-yl)-2-(4-phenoxyphenyl)-4,5,6,7-tetrahydropyrazolo[1,5-a]pyrimidine-3-carboxamide]",25 nM
2,"CC#CC(=O)N1CCC(C2CCNc3c(C(N)=O)c(-c4ccc(Oc5ccc(F)cc5)cc4)nn32)CC1 (stereo not drawn) [Compound 194, 7-(1-(But-2-ynoyl)piperidin-4-yl)-2-(4-(4-fluorophenoxy)phenyl)-4,5,6,7-tetrahydropyrazolo[1,5-a]pyrimidine-3-carboxamide]",45 nM
3,"NC(=O)c1c(-c2ccc(Oc3ccccc3)cc2)nn2c1NCC21CCNCC1 [Compound 39, 6-(4-Phenoxyphenyl)-1,2-dihydrospiro[imidazo[1,2-b]pyrazole-3,4′-piperidine]-7-carboxamide]",1400 nM
4,"C=CC(=O)Nc1ccccc1C1CCNc2c(C(N)=O)c(-c3ccc(C(F)(F)F)c(Cl)c3)nn21 (stereo not drawn) [Compound 162, 7-(2-Acrylamidophenyl)-2-(3-chloro-4-(trifluoromethyl)phenyl)-4,5,6,7-tetrahydropyrazolo[1,5-a]pyrimidine-3-carboxamide]",2.1 nM
5,"COCCOc1ccc(-c2nn3c(c2C(N)=O)NCCC3c2ccccc2N)cc1 (stereo not drawn) [Compound 21, 7-(2-Aminophenyl)-2-(4-(2-methoxyethoxy)phenyl)-4,5,6,7-tetrahydropyrazolo[1,5-a]pyrimidine-3-carboxamide]",> 10000 nM
6,"NC(=O)c1c(-c2ccc(Oc3ccccc3)cc2)nn2c3c([nH]c12)CNCC3 [Compound 62, 2-(4-Phenoxyphenyl)-5,6,7,8-tetrahydro-4H-pyrazolo[1′,5′:1,2]imidazo [4,5-c]pyridine-3-carboxamide]",240 nM
7,"C=CC(=O)N1CC(C2CCNc3c(C(N)=O)c(-c4ccc(OCc5ccccn5)cc4)nn32)C1 (stereo not drawn) [Compound 105, 7-(1-acryloylazetidin-3-yl)-2-(4-(pyridin-2-ylmethoxy)phenyl)-4,5,6,7-tetrahydropyrazolo[1,5-a]pyrimidine-3-carboxamide]",18 nM
8,"C=CC(=O)N1CCCC1C1CCNc2c(C(N)=O)c(-c3ccc(Oc4ccccc4)cc3)nn21 (stereo not drawn) [Compound 103, 7-(1-acryloylpyrrolidin-2-yl)-2-(4-phenoxyphenyl)-4,5,6,7-tetrahydropyrazolo[1,5-a]pyrimidine-3-carboxamide]",1.1 nM
9,"C=CC(=O)NCC1CNc2c(C(N)=O)c(-c3ccc(Oc4ccccc4)cc3)nn2C1 (stereo not drawn) [Compound 86, 6-(Acrylamidomethyl)-2-(4-phenoxyphenyl)-4,5,6,7-tetrahydropyrazolo[1,5-a]pyrimidine-3-carboxamide]",2.2 nM
10,"N#CN1CCC([C@@H]2CCNc3c(C(N)=O)c(-c4ccc(Oc5ccccc5)cc4)nn32)CC1 [Compound 182, (S)-7-(1-cyanopiperidin-4-yl)-2-(4-phenoxyphenyl)-4,5,6,7-tetrahydropyrazolo[1,5-a]pyrimidine-3-carboxamide]",124 nM
11,"N#CCC(=O)N1CCC([C@@H]2CCNc3c(C(N)=O)c(-c4ccc(Oc5ccccc5)cc4)nn32)CC1 [Compound 180, (S)-7-(1-(2-Cyanoacetyl)piperidin-4-yl)-2-(4-phenoxyphenyl)-4,5,6,7-tetrahydropyrazolo[1,5-a]pyrimidine-3-carboxamide]",87 nM
12,"C=CC(=O)Nc1ccccc1C1CCNc2c(C(N)=O)c(-c3ccc(F)c(F)c3)nn21 (stereo not drawn) [Compound 137, 7-(2-acrylamidophenyl)-2-(3,4-difluorophenyl)-4,5,6,7-tetrahydropyrazolo[1,5-a]pyrimidine-3-carboxamide]",3.2 nM
13,"NC(=O)c1c(-c2ccc(Oc3ccccc3)cc2)nn2c1NCC[C@H]2C1CCN(C(=O)C#CCO)CC1 [Compound 191, (S)-7-(1-(4-Hydroxybut-2-ynoyl)piperidin-4-yl)-2-(4-phenoxyphenyl)-4,5,6,7-tetrahydropyrazolo[1,5-a]pyrimidine-3-carboxamide]",0.67 nM
14,"C=CC(=O)N1CC(C2CCNc3c(C(N)=O)c(-c4ccc(Oc5ccc(Cl)c(Cl)c5)cc4)nn32)C1 (stereo not drawn) [Compound 132, 7-(1-acryloylazetidin-3-yl)-2-(4-(3,4-dichlorophenoxy)phenyl)-4,5,6,7-tetrahydropyrazolo[1,5-a]pyrimidine-3-carboxamide]",1.7 nM
15,"NC(=O)c1c(-c2ccc(OC3CCOCC3)cc2)nn2c1NCCC2c1ccccc1N (stereo not drawn) [Compound 23, 7-(2-Aminophenyl)-2-(4-(tetrahydro-2H-pyran-4-yloxy)phenyl)-4,5,6,7-tetrahydropyrazolo[1,5-a]pyrimidine-3-carboxamide]",3200 nM
16,"C=CC(=O)Nc1ccc2c(c1)CC(=O)Nc1c(C(N)=O)c(-c3ccc(Oc4ccccc4)cc3)nn1-2 [Compound 75, 8-Acrylamido-5-oxo-2-(4-phenoxyphenyl)-5,6-dihydro-4H-benzo[f]pyrazolo[1,5-a][1,3]diazepine-3-carboxamide]",41 nM
17,"NC(=O)c1c(-c2ccc(Oc3ccccc3)cc2)nn2c1NCCC2c1ccccn1 (stereo not drawn) [Compound 102, 2-(4-phenoxyphenyl)-7-(pyridin-2-yl)-4,5,6,7-tetrahydropyrazolo[1,5-a]pyrimidine-3-carboxamide]",830 nM
18,"NC(=O)c1c(-c2ccc(Oc3ccccc3)cc2)nn2c1NC(=O)C21CCNCC1 [Compound 82, 2-Oxo-6-(4-phenoxyphenyl)-1,2-dihydrospiro[imidazo[1,2-b]pyrazole-3,4′-piperidine]-7-carboxamide]",3100 nM

row,SMILES,IC50
1,"NC(=O)c1c(-c2ccc(Oc3ccccc3)cc2)nn2c1NCC21CNC1 [Compound 45, 6′-(4-Phenoxyphenyl)-1′,2′-dihydrospiro[azetidine-3,3′-imidazo[1,2-b]pyrazole]-7′-carboxamide]",510 nM
2,NC(=O)c1c(-c2ccc(Oc3ccccc3)cc2)nn2c3c([nH]c12)CCNCC3 [Compound 120],180 nM
3,"NC(=O)c1c(-c2ccc(Oc3ccccc3)cc2)nn2c1[nH]c1ccc([N+](=O)[O-])cc12 [Compound 65, 7-Nitro-2-(4-phenoxyphenyl)-4H-benzo[4,5]imidazo[1,2-b]pyrazole-3-carboxamide]",320 nM
4,"NC(=O)c1c(-c2ccc(Oc3ccccc3)cc2)nn2c(C3CCNCC3)cc(=O)[nH]c12 [Compound 80, 5-Oxo-2-(4-phenoxyphenyl)-7-(piperidin-4-yl)-4,5-dihydropyrazolo[1,5-a]pyrimidine-3-carboxamide]",> 10000 nM
5,"NC(=O)c1c(-c2ccc(Oc3ccccc3)cc2)nn2c1[nH]c(=O)c1cc(N)ccc12 [Compound 77, 7-Amino-5-oxo-2-(4-phenoxyphenyl)-4,5-dihydropyrazolo[1,5-a]quinazoline-3-carboxamide]",480 nM
6,NC(=O)c1c(-c2ccc(Oc3ccccc3)cc2)nn2c1NC[C@H]1CNC[C@H]12 (relative stereo) [Compound 115],8200 nM
7,"NC(=O)c1c(-c2ccc(Oc3ccccc3)cc2)nn2c1[nH]c(=O)c1cc([N+](=O)[O-])ccc12 [Compound 76, 7-Nitro-5-oxo-2-(4-phenoxyphenyl)-4,5-dihydropyrazolo[1,5-a]quinazoline-3-carboxamide]",5500 nM
8,"C=CC(=O)Nc1ccccc1C1CCNc2c(C(N)=O)c(-c3ccc(Oc4ccc(F)cc4)cc3)nn21 (stereo not drawn) [Compound 12, 7-(2-Acrylamidophenyl)-2-(4-(4-fluorophenoxy)phenyl)-4,5,6,7-tetrahydropyrazolo[1,5-a]pyrimidine-3-carboxamide]",1.7 nM
9,"CC(C)(C)OC(=O)N1CC2[C@@H](CNc3c(C(N)=O)c(-c4ccc(Oc5ccccc5)cc4)nn32)C1 (single isomer, unassigned) [Compound 114, Cis-7-(1-tert-Butoxycarbonyl)-2-(4-phenoxyphenyl)-5,5a,6,7,8,8a-hexahydro-4H-pyrazolo[1,5-a]pyrrolo[3,4-e]pyrimidine-3-carboxamide]",6000 nM
10,"NC(=O)c1c(-c2ccc(Oc3ccccc3)cc2)nn2c1NCc1ccc(N)cc1-2 [Compound 68, 8-Amino-2-(4-phenoxyphenyl)-4,5-dihydropyrazolo[1,5-a]quinazoline-3-carboxamide]",190 nM
11,"NC(=O)c1c(-c2ccc(Oc3ccccc3)cc2)nn2c1NCC1(CNC1)C2 [Compound 87, 2′-(4-Phenoxyphenyl)-5′,7′-dihydro-4′H-spiro[azetidine-3,6′-pyrazolo[1,5-a]pyrimidine]-3′-carboxamide]",2000 nM
12,"NC(=O)c1c(-c2ccc(Oc3ccccc3)cc2)nn2c1NCCC2c1ccc(N)cc1 (stereo not drawn) [Compound 98, 7-(4-aminophenyl)-2-(4-phenoxyphenyl)-4,5,6,7-tetrahydropyrazolo[1,5-a]pyrimidine-3-carboxamide]",77 nM
13,"NC(=O)c1c(-c2ccc(Oc3ccccc3)cc2)nn2c1NCCc1cc(N)ccc1-2 [Compound 71, 8-Amino-2-(4-phenoxyphenyl)-5,6-dihydro-4H-benzo[f]pyrazolo[1,5-a][1,3]diazepine-3-carboxamide]",55 nM
14,"CC(=O)N1CCc2[nH]c3c(C(N)=O)c(-c4ccc(Oc5ccccc5)cc4)nn3c2C1 [Compound 55, 7-Acetyl-2-(4-phenoxyphenyl)-5,6,7,8-tetrahydro-4H-pyrazolo[5′,1′:2,3]imidazo [4,5-c]pyridine-3-carboxamide]",82 nM
15,"C=CC(=O)N1CC(C2CCNc3c(C(N)=O)c(-c4ccc(Oc5cccc(Cl)c5)cc4)nn32)C1 (stereo not drawn) [Compound 107, 7-(1-acryloylazetidin-3-yl)-2-(4-(3-chlorophenoxy)phenyl)-4,5,6,7-tetrahydropyrazolo[1,5-a]pyrimidine-3-carboxamide]",0.48 nM
16,"CC=CC(=O)N1CCc2[nH]c3c(C(N)=O)c(-c4ccc(Oc5ccccc5)cc4)nn3c2C1 [Compound 58, 7-(But-2-enoyl)-2-(4-phenoxyphenyl)-5,6,7,8-tetrahydro-4H-pyrazolo [5′,1′:2,3]imidazo[4,5-c]pyridine-3-carboxamide]",0.43 nM
17,NC(=O)c1c(-c2ccc(Oc3ccccc3)cc2)nn2c1[nH]c1cc(N)ccc12 [Compound 129],23 nM
18,"C=CC(=O)N1CCC2(CCNc3c(C(N)=O)c(-c4ccc(Oc5ccccc5)cc4)nn32)CC1 [Compound 43, 1-Acryloyl-2′-(4-phenoxyphenyl)-5′,6′-dihydro-4′H-spiro[piperidine-4,7′-pyrazolo[1,5-a]pyrimidine]-3′-carboxamide]",3 nM
